Laboratory results published in patent US20140255392A1 (BAYER INTELLECTUAL PROPERTY GMBH, priority 2011, published 2014).

Molecular target: T1, human kinase Mps-1 (Homo sapiens, UniProt P33981)
T1 construct: N-terminally GST-tagged human full length recombinant Mps-1 kinase; GST (N); purchased Invitrogen, Karslruhe, Germany PV4071
T1 sequence (P33981 1-857): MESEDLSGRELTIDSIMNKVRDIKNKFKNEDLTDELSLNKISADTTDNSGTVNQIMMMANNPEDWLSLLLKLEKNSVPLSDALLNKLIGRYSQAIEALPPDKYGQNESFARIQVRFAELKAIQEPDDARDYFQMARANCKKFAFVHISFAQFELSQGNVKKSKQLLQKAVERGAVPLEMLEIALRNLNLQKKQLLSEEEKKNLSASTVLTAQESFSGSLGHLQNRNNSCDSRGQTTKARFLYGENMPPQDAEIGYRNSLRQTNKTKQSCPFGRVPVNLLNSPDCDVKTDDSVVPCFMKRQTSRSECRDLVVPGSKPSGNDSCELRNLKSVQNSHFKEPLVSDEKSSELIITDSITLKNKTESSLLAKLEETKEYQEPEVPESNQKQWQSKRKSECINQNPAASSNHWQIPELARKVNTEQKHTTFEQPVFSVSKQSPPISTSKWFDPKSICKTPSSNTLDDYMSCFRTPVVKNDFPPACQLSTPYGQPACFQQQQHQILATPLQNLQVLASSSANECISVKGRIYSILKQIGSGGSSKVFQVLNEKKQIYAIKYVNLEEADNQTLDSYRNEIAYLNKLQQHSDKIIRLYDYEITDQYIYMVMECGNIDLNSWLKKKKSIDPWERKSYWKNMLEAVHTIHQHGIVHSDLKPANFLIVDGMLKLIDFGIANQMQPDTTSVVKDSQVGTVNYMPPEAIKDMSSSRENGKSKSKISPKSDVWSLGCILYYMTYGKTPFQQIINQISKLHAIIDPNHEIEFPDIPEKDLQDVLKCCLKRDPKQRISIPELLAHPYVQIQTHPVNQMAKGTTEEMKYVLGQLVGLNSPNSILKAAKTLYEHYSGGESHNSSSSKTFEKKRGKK
Assay: Mps-1 kinase assay (TR-FRET)
Format: biochemical
Settings: N-terminally GST-tagged human full length recombinant Mps-1; 10 μM ATP; 1 μM peptide substrate; 60 min at 22° C.
Experimental: The human kinase Mps-1 phosphorylates a biotinylated substrate peptide. Detection of the phosphorylated product is achieved by time-resolved fluorescence resonance energy transfer (TR-FRET) from Europium-labelled anti-phospho-Serine/Threonine antibody as donor to streptavidin labelled with cross-linked allophycocyanin (SA-XLent) as acceptor. Compounds are tested for their inhibition of the kinase activity.
N-terminally GST-tagged human full length recombinant Mps-1 kinase (purchased from Invitrogen, Karslruhe, Germany, cat. no PV4071) was used. As substrate for the kinase reaction a biotinylated peptide of the amino-acid sequence […] (C-terminus in amide form, purchased from Biosynthan GmbH, Berlin) was used.
The concentration of Mps-1 in the assay was adjusted to the activity of the enzyme lot and was chosen appropriate to have the assay in the linear range, typical enzyme concentrations were in the range of about 1 nM (final conc. in the 5 μl assay volume).
The resulting mixture was incubated 1 h at 22° C. to allow the binding of the phosphorylated peptide to the anti-phospho(Ser/Thr)-Europium-antibody. Subsequently the amount of phosphorylated substrate was evaluated by measurement of the resonance energy transfer from the Europium-labelled anti-phospho(Ser/Thr) antibody to the Streptavidin-XLent.

IC50 [nM] | Structure (SMILES)
0.4 | Cc1cc(-c2cnc3c(NCCC(F)(F)F)cc(Sc4ccccc4O)cn23)ccc1C(=O)NC1CC1 [Example 3-6, N-cyclopropyl-4-{6-[(2-hydroxyphenyl)sulfanyl]-8-[(3,3,3-trifluoropropyl)amino]imidazo[1,2-a]pyridin-3-yl}-2-methylbenzamide]
84.1 | Cc1cc(-c2cnc3c(NCCC(F)(F)F)cc(S(C)(=O)=O)cn23)ccc1C(=O)NC1CC1 [Example 5-1]
0.3 | Cc1cc(-c2cnc3c(NCCC(F)(F)F)cc(Oc4cccc(F)c4)cn23)ccc1C(=O)NC1CC1 [Example 6-1, N-cyclopropyl-4-{6-(3-fluorophenoxy)-8-[(3,3,3-trifluoropropyl)amino]imidazo[1,2-a]pyridin-3-yl}-2-methylbenzamide]
3.4 | CNC(=O)c1ccc(-c2cnc3c(NCCC(F)(F)F)cc(Oc4cccc(F)c4)cn23)cc1C [Example 8, 4-{6-(3-Fluorophenoxy)-8-[(3,3,3-trifluoropropyl)amino]imidazo[1,2-a]pyridin-3-yl}-N,2-dimethylbenzamide]
0.4 | Cc1cc(-c2cc(NCC3CCOCC3)c3ncc(-c4ccc(C(=O)NC5CC5)c(C)c4)n3c2)ccc1C(=O)NC1CC1 [Example 9, 4,4′-{8-[(Tetrahydro-2H-pyran-4-ylmethyl)amino]imidazo[1,2-a]pyridine-3,6-diyl}bis(N-cyclopropyl-2-methylbenzamide)]
2.9 | CCNC(=O)c1ccc(-c2cnc3c(NCCC(F)(F)F)cc(Oc4cccc(F)c4)cn23)cc1C [Example 10, N-ethyl-4-{6-(3-fluorophenoxy)-8-[(3,3,3-trifluoropropyl)amino]imidazo[1,2-a]pyridin-3-yl}-2-methylbenzamide]
3.8 | Cc1cc(-c2cnc3c(NCCC(F)(F)F)cc(Oc4cccc(F)c4)cn23)ccc1C(=O)NC1(C)CC1 [Example 11, 4-{6-(3-Fluorophenoxy)-8-[(3,3,3-trifluoropropyl)amino]imidazo[1,2-a]pyridin-3-yl}-2-methyl-N-(1-methylcyclopropyl)benzamide]
11.1 | Cc1cc(-c2cnc3c(NCCC(F)(F)F)cc(Oc4cccc(F)c4)cn23)ccc1C(=O)NC1(C#N)CC1 [Example 13, N-(1-cyanocyclopropyl)-4-{6-(3-fluorophenoxy)-8-[(3,3,3-trifluoropropyl)amino]imidazo[1,2-a]pyridin-3-yl}-2-methylbenzamide]
65.2 | C#Cc1cc(NCCC(F)(F)F)c2ncc(-c3ccc(C(=O)NC)c(C)c3)n2c1 [Example 14, 4-{6-ethynyl-8-[(3,3,3-trifluoropropyl)amino]imidazo[1,2-a]pyridin-3-yl}-N,2-dimethylbenzamide]
55 | C#Cc1cc(NCCC(F)(F)F)c2ncc(-c3ccc(C(=O)NCC)c(C)c3)n2c1 [Example 15, N-ethyl-4-{6-ethynyl-8-[(3,3,3-trifluoropropyl)amino]imidazo[1,2-a]pyridin-3-yl}-2-methylbenzamide]
108 | C#Cc1cc(NCCC(F)(F)F)c2ncc(-c3ccc(C(=O)NC4(C)CC4)c(C)c3)n2c1 [Example 17, 4-{6-ethynyl-8-[(3,3,3-trifluoropropyl)amino]imidazo[1,2-a]pyridin-3-yl}-2-methyl-N-(1-methylcyclopropyl)benzamide]
65.5 | C#Cc1cc(NCCC(F)(F)F)c2ncc(-c3ccc(C(=O)NC4(C#N)CC4)c(C)c3)n2c1 [Example 18, N-(1-cyanocyclopropyl)-4-{6-ethynyl-8-[(3,3,3-trifluoropropyl)amino]imidazo[1,2-a]pyridin-3-yl}-2-methylbenzamide]
0.7 | Cc1ccc(F)cc1Oc1cc(NCCC(F)(F)F)c2ncc(-c3ccc(C(=O)NC4CC4)c(C)c3)n2c1 [Example 19, N-cyclopropyl-4-{6-(5-fluoro-2-methylphenoxy)-8-[(3,3,3-trifluoropropyl)amino]imidazo[1,2-a]pyridin-3-yl}-2-methylbenzamide]
41.1 | CNC(=O)c1ccc(-c2cnc3c(NCCC(F)(F)F)cc(C#CCO)cn23)cc1C [Example 20, 4-{6-(3-hydroxyprop-1-yn-1-yl)-8-[(3,3,3-trifluoropropyl)amino]imidazo[1,2-a]pyridin-3-yl}-N,2-dimethylbenzamide]
33.7 | CCNC(=O)c1ccc(-c2cnc3c(NCCC(F)(F)F)cc(C#CCO)cn23)cc1C [Example 21, N-ethyl-4-{6-(3-hydroxyprop-1-yn-1-yl)-8-[(3,3,3-trifluoropropyl)amino]imidazo[1,2-a]pyridin-3-yl}-2-methylbenzamide]
50 | Cc1cc(-c2cnc3c(NCCC(F)(F)F)cc(C#CCO)cn23)ccc1C(=O)NC1(C)CC1 [Example 22, 4-{6-(3-hydroxyprop-1-yn-1-yl)-8-[(3,3,3-trifluoropropyl)amino]imidazo[1,2-a]pyridin-3-yl}-2-methyl-N-(1-methylcyclopropyl)benzamide]
11.1 | Cc1cc(-c2cnc3c(NCCC(F)(F)F)cc(Oc4cccc(F)c4)cn23)ccc1C(=O)NC1CCC1 [Example 24, N-cyclobutyl-4-{6-(3-fluorophenoxy)-8-[(3,3,3-trifluoropropyl)amino]imidazo[1,2-a]pyridin-3-yl}-2-methylbenzamide]
2.9 | CNC(=O)c1ccc(-c2cnc3c(NCCC(F)(F)F)cc(Oc4cc(F)ccc4C)cn23)cc1C [Example 25, 4-{6-(5-Fluoro-2-methylphenoxy)-8-[(3,3,3-trifluoropropyl)amino]imidazo[1,2-a]pyridin-3-yl}-N,2-dimethylbenzamide]
4.2 | Cc1ccc(F)cc1Oc1cc(NCCC(F)(F)F)c2ncc(-c3ccc(C(=O)NC4(C)CC4)c(C)c3)n2c1 [Example 27, 4-{6-(5-Fluoro-2-methylphenoxy)-8-[(3,3,3-trifluoropropyl)amino]imidazo[1,2-a]pyridin-3-yl}-2-methyl-N-(1-methylcyclopropyl)benzamide]
13.9 | Cc1ccc(F)cc1Oc1cc(NCCC(F)(F)F)c2ncc(-c3ccc(C(=O)NC4(C#N)CC4)c(C)c3)n2c1 [Example 28, N-(1-cyanocyclopropyl)-4-{6-(5-fluoro-2-methylphenoxy)-8-[(3,3,3-trifluoropropyl)amino]imidazo[1,2-a]pyridin-3-yl}-2-methylbenzamide]
0.4 | Cc1cc(-c2cnc3c(NCCC(F)(F)F)cc(Oc4cccc(F)c4F)cn23)ccc1C(=O)NC1CC1 [Example 30, N-cyclopropyl-4-{6-(2,3-difluorophenoxy)-8-[(3,3,3-trifluoropropyl)amino]imidazo[1,2-a]pyridin-3-yl}-2-methylbenzamide]
1.3 | Cc1cc(-c2cnc3c(NCCC(F)(F)F)cc(Oc4cccc(Cl)c4)cn23)ccc1C(=O)NC1CC1 [Example 31, 4-{6-(3-chlorophenoxy)-8-[(3,3,3-trifluoropropyl)amino]imidazo[1,2-a]pyridin-3-yl}-N-cyclopropyl-2-methylbenzamide]
0.9 | Cc1cc(-c2cc(NCCC(F)(F)F)c3ncc(-c4ccc(C(=O)NC5CC5)c(C)c4)n3c2)ccc1C(=O)NC1CC1 [Example 32, 4,4′-{8-[(3,3,3-trifluoropropyl)amino]imidazo[1,2-a]pyridine-3,6-diyl}bis(N-cyclopropyl-2-methylbenzamide)]
0.7 | Cc1cc(-c2cnc3c(NCCC(F)(F)F)cc(Oc4ccccc4)cn23)ccc1C(=O)NC1CC1 [Example 33, N-cyclopropyl-2-methyl-4-{6-phenoxy-8-[(3,3,3-trifluoropropyl)amino]imidazo[1,2-a]pyridin-3-yl}benzamide]
6.2 | CNC(=O)c1ccc(-c2cnc3c(NCCC(F)(F)F)cc(Oc4cccc(Cl)c4)cn23)cc1C [Example 34, 4-{6-(3-chlorophenoxy)-8-[(3,3,3-trifluoropropyl)amino]imidazo[1,2-a]pyridin-3-yl}-N,2-dimethylbenzamide]
6.3 | CCNC(=O)c1ccc(-c2cnc3c(NCCC(F)(F)F)cc(Oc4cccc(Cl)c4)cn23)cc1C [Example 35, 4-{6-(3-chlorophenoxy)-8-[(3,3,3-trifluoropropyl)amino]imidazo[1,2-a]pyridin-3-yl}-N-ethyl-2-methylbenzamide]
